# Article PMC8566451, “Lead optimization of novel quinolone chalcone compounds by a structure–activity relationship (SAR) study to increase efficacy and metabolic stability” (Scientific Reports, 2021)
# How the values were obtained:
# Type in all cases: cell-based
# HeLa = test: Sulforhodamine B (SRB) assay; details: Homo sapiens; for GI50: HeLa cervical cancer cells, 48 h, SRB; for IC50: HeLa, Supplementary Table S1, SRB
# Experimental: (§1) The human MDA-MB-231, MCF7, MDA-MB-468, RPMI-8226 and HeLa cell lines were purchased from ATCC and maintained in Dulbecco's Modified Eagle Medium (DMEM)—high glucose supplemented with 10% fetal bovine serum (FBS) and antibiotics/antimycotics. Cell line authentication was carried out by Genetica DNA Laboratories (Burlington, NC) using a short tandem repeat (STR) profiling method (March 2015; July 2015; September 2016). Melanoma cells E-055 (MZ-Mel-3), E-097 (Mel-SOE), E-112 (UKRV-Mel-38), E-157 (UKRV-Mel-17) were obtained from the European Searchable Tumour Line Database (ESTDAB) cell bank (a kind gift of Dr. Graham Pawelec, Tubingen University, Germany). MDA-MB-435 was purchased from the Division of Cancer Treatment and Diagnosis Tumor Repository. All melanoma cells were cultured in Roswell Park Memorial Institute (RPMI) medium supplemented with 10% FBS and P/S/antimycotics. Primary human epidermal melanocytes from normal adult abdominal skin were purchased from ATCC (cat # PCS-200–013) and Cell Applications (cat#104-05a). The melanocytes were cultured in the media supplied by the companies.
# (§2) The SRB assay was used to assess drug-induced cytotoxicity and cell proliferation as previously described[2],[33],[34] with a few modifications. Briefly, cells were plated 10,000 to 25,000 cells/cm^2 in 96-well plates (100 µl medium) and allowed to adhere overnight. The cell counts were different for each cell line to ensure optimal cell growth for the duration of the assay. Eight different concentrations of compound solutions using 2–4 times serial dilutions (100 µl). Cells were then incubated for an additional 48 h and then fixed with 100 µl ice-cold 10% (w/v) trichloroacetic acid (TCA) (without removing the cell medium, final concentration, 3.3% of TCA) and stained with 0.4% SRB (w/v) in 1% acetic acid (v/v). The relative growth rate (%) was calculated for each of the compound concentrations according to the following formula: 100 * (T − T0)/(C − T0), in which T is the optical density (OD) after exposure to a certain concentration of the compound after 48 h, T0 is the OD at the start of drug exposure (time zero) and C is the control growth. The GI50 for each compound was obtained from a non-linear sigmoidal dose–response (variable slope) curve fitted by GraphPad Prism v.4.03 software.
# MCF7 = test: Sulforhodamine B (SRB) assay; details: Homo sapiens; for GI50: MCF7 breast cancer cells, 48 h, SRB; for IC50: MCF7, Supplementary Table S1, SRB
# Experimental: as §1, §2
# MDA-MB231 = test: Sulforhodamine B (SRB) assay; details: Homo sapiens, MDA-MB-231; for GI50: MDA-MB231 breast cancer cells, 48 h, SRB; for IC50: Supplementary Table S1, SRB
# Experimental: as §1, §2
# MDA-MB435 = test: Sulforhodamine B (SRB) assay; details: Homo sapiens, MDA-MB-435, MDA-MB435 cells, 48 h
# Experimental: as §1, §2
# MDA-MB468 = test: Sulforhodamine B (SRB) assay; details: Homo sapiens, MDA-MB-468, MDA-MB468 breast cancer cells, 48 h
# Experimental: as §1, §2
# MZ-Mel-3 = test: Sulforhodamine B (SRB) assay; details: MZ-Mel-3 melanoma cells, 48 h
# Experimental: as §1, §2
# Mel-SOE = test: Sulforhodamine B (SRB) assay; details: Mel-SOE melanoma cells, 48 h
# Experimental: as §1, §2
# UKRV-Mel-17 = test: Sulforhodamine B (SRB) assay; details: UKRV-Mel-17 melanoma cells, 48 h
# Experimental: as §1, §2
# UKRV-Mel-38 = test: Sulforhodamine B (SRB) assay; details: UKRV-Mel-38 melanoma cells, 48 h
# Experimental: as §1, §2
# MDA-MB231-TaxR = test: Sulforhodamine B (SRB) assay; details: Homo sapiens, MDA-MB231-TaxR paclitaxel-resistant breast cancer cells, 48 h
# Text: We had initially determined that quinolone chalcones were promising anti-proliferative through a first round screening and identified CTR-17 and CTR-20 as favorable structures for anticancer activity. […] We carried out a comparative SAR study to determine if we could further optimize the quinolone chalcone to maximize efficacy. The Sulforhodamine B (SRB) assay was used to measure the anti-proliferative/cell killing activities of CTRs, for which several different cell lines were use: the cervical cancer HeLa, the breast cancer cell lines MDA-MB231, MDA-MB468, MDA-MB231TaxR (an induced paclitaxel-resistant sub-cell line of the MDA-MB231[9]) and MCF7. In addition, a subset was tested against the melanoma cell lines MZ-MEL-3.1, Mel-SOE, UKRV-Mel-38, UKRV-Mel-17 and MDA-MB-435 (Table 1, Supplemental Table S1).
# as §2
# [1] = tested on: cancer cell lines (breast cancer, melanoma, cervical cancer); test: SRB assay, average GI50 over cancer cell lines; details: average over the cell lines of Table 1 or Supplemental Table S1; read-out: average GI50
# Experimental: as §2
# RPMI-8226 = test: Sulforhodamine B (SRB) assay; details: Homo sapiens, Supplementary Table S1, SRB
# Experimental: as §1, §2
SMILES,GI50 (HeLa) [nM],GI50 (MCF7) [nM],GI50 (MDA-MB231) [nM],GI50 (MDA-MB435) [nM],GI50 (MDA-MB468) [nM],GI50 (MZ-Mel-3) [nM],GI50 (Mel-SOE) [nM],GI50 (UKRV-Mel-17) [nM],GI50 (UKRV-Mel-38) [nM],GI50 (MDA-MB231-TaxR) [nM],GI50 [1] [nM],IC50 (HeLa) [nM],IC50 (MCF7) [nM],IC50 (MDA-MB231) [nM],IC50 (RPMI-8226) [nM]
"COc1ccccc1C(=O)/C=C/c1cc2ccccc2[nH]c1=O [CTR-17, (E)-3-(3-(2-methoxyphenyl)-3-oxoprop-1-enyl)quinolin-2(1H)-one]",280 ± 78,485 ± 97,657 ± 72,290 ± 66,320 ± 26,227 ± 30,786 ± 52,504 ± 33,626 ± 154,1300 ± 83,464,,,,
"COc1ccccc1C(=O)/C=C/c1cc2cc(C)ccc2[nH]c1=O [CTR-18, (E)-3-(3-(2-methoxyphenyl)-3-oxoprop-1-enyl)-6-methylquinolin-2(1H)-one]",443 ± 112,510 ± 38,530 ± 119,307 ± 7,304 ± 2,239 ± 13,817 ± 34,596 ± 162,746 ± 177,1210 ± 179,499,,,,
"COc1ccc2[nH]c(=O)c(/C=C/C(=O)c3ccccc3OC)cc2c1 [CTR-20, (E)-6-Methoxy-3-(3-(2-methoxyphenyl)-3-oxoprop-1-enyl) quinolin-2(1H)-one]",124 ± 36,194 ± 21,216 ± 21,90 ± 10,408 ± 12,98 ± 21,338 ± 78,283 ± 57,338 ± 33,966 ± 163,232,,,,
"COc1cc2cc(/C=C/C(=O)c3ccccc3OC)c(=O)[nH]c2cc1OC [CTR-24, (E)-6,7-dimethoxy-3-(3-(2-methoxyphenyl)-3-oxoprop-1-enyl)quinolin-2(1H)-one]",,,,,,,,,,,1500,1340 ± 200,1540 ± 360,2020 ± 10,1040 ± 130
"COc1cccc(OC)c1C(=O)/C=C/c1cc2ccccc2[nH]c1=O [CTR-25, (E)-3-(3-(2,6-dimethoxyphenyl)-3-oxoprop-1-enyl)quinolin-2(1H)-one]",,,,,,,,,,,1600,1320 ± 20,1690 ± 70,2600 ± 180,770 ± 210
"COc1ccc(OC)c(C(=O)/C=C/c2cc3ccccc3[nH]c2=O)c1 [CTR-26, (E)-3-(3-(2,5-dimethoxyphenyl)-3-oxoprop-1-enyl)quinolin-2(1H)-one]",,,,,,,,,,,443,290 ± 20,320 ± 10,960 ± 150,200 ± 30
"COc1ccc(C(=O)/C=C/c2cc3ccccc3[nH]c2=O)c(OC)c1 [CTR-27, (E)-3-(3-(2,4-dimethoxyphenyl)-3-oxoprop-1-enyl)quinolin-2(1H)-one]",,,,,,,,,,,,1800 ± 270,2200 ± 350,2690 ± 240,770 ± 100
"COc1ccc(F)cc1C(=O)/C=C/c1cc2ccccc2[nH]c1=O [CTR-29, (E)-3-(3-(5-fluoro-2-methoxyphenyl)-3-oxoprop-1-enyl)quinolin-2(1H)-one]",,,,,,,,,,,118,90 ± 20,100 ± 10,210 ± 20,70 ± 10
"COc1cc(F)ccc1C(=O)/C=C/c1cc2ccccc2[nH]c1=O [CTR-30, (E)-3-(3-(4-fluoro-2-methoxyphenyl)-3-oxoprop-1-enyl)quinolin-2(1H)-one]",,,,,,,,,,,,1500 ± 130,1470 ± 150,1420 ± 80,200 ± 30
"COc1ccc(OC)c(C(=O)/C=C/c2cc3cc(OC)ccc3[nH]c2=O)c1 [CTR-34, (E)-3-(3-(2,5-dimethoxyphenyl)-3-oxoprop-1-enyl)-6-methoxyquinolin-2(1H)-one]",,,,,,,,,,,648,640 ± 30,850 ± 60,840 ± 80,260 ± 20
"COc1ccc(C(=O)/C=C/c2cc3cc(OC)ccc3[nH]c2=O)c(OC)c1 [CTR-35, (E)-3-(3-(2,4-dimethoxyphenyl)-3-oxoprop-1-enyl)-6-methoxyquinolin-2(1H)-one]",,,,,,,,,,,2000,2070 ± 250,2120 ± 360,2350 ± 260,1320 ± 100
"COc1ccc2[nH]c(=O)c(/C=C/C(=O)c3ccc(OC(F)(F)F)cc3OC)cc2c1 [CTR-36, (E)-6-methoxy-3-(3-(2-methoxy-4-(trifluoromethoxy)phenyl)-3-oxoprop-1-enyl)quinolin-(1H)-one]",,,,,,,,,,,805,1110 ± 130,1230 ± 80,730 ± 60,150 ± 20
"COc1ccc2[nH]c(=O)c(/C=C/C(=O)c3cc(F)ccc3OC)cc2c1 [CTR-37, (E)-3-(3-(5-fluoro-2-methoxyphenyl)-3-oxoprop-1-enyl)-6-methoxyquinolin-2(1H)-one]",,,,,,,,,,,,140 ± 30,320 ± 40,390 ± 90,100 ± 30
"COc1ccc2[nH]c(=O)c(/C=C/C(=O)c3ccc(F)cc3OC)cc2c1 [CTR-38, (E)-3-(3-(4-fluoro-2-methoxyphenyl)-3-oxoprop-1-enyl)-6-methoxyquinolin-2(1H)-one]",,,,,,,,,,,98,60 ± 10,140 ± 20,150 ± 10,40 ± 10
"CCOc1ccccc1C(=O)/C=C/c1cc2cc(OC)ccc2[nH]c1=O [CTR-40, (E)-3-(3-(2-ethoxyphenyl)-3-oxoprop-1-enyl)-6-methoxyquinolin-2(1H)-one]",19 ± 1,41 ± 5,30 ± 4,23,77 ± 13,11,53 ± 4,28 ± 5,42 ± 11,54 ± 13,36,40,90 ± 10,130 ± 20,50 ± 20
